Results as given in article PMC3369139, “Preclinical evaluation of two ^68Ga-siderophores as potential radiopharmaceuticals for Aspergillus fumigatus infection imaging” (European Journal of Nuclear Medicine and Molecular Imaging, 2012).
Values joined by “and” are separate entries in the source; they are usually repeats but may differ in a detail not shown here. Equal values may be shown once.

Columns and labels:
[1] = Protein binding in human serum; assay type: in vitro ADME
Experimental: (§1) TAFC and FOXE were labelled with ^68Ga using acetate buffer at room temperature for 15 min (TAFC) and at 80 °C for 20 min (FOXE). For all in vitro and in vivo studies, the pH of the final product was adjusted with 1.1 M sodium acetate to pH 6–7. The radiochemical purity, log P, protein binding and stability of ^68Ga-siderophores in various media were determined, as described previously.

A. fumigatus [2] = experiment: Ex vivo biodistribution in rat A. fumigatus infection model, iron preload; parameters: species or system Lewis rats
Experimental: (§2) The A. fumigatus (A29) isolate was grown on Sabouraud dextrose agar (BD) for 5 days at 37 °C, and the conidia were harvested in 2 ml of sterile NaCl by gently rubbing with a pipette tip. The conidia suspension was transferred into a sterile 50 ml plastic tube. After homogenization (vortex) and filtration (40 μm nylon cell strainer; BD), the suspension was counted in a Neubauer chamber and adjusted to the volitional concentration in the range 1 × 10^5 to 1 × 10^9 conidia per millilitre.
(§3) Female or male Lewis rats (2–3 months old), weighing 200–250 g, were treated as described previously. Briefly, the rats received repeated intraperitoneal injections of cyclophosphamide to induce neutropenia before A. fumigatus administration. To prevent bacterial superinfection, the animals were given antibiotics throughout the experiment. Fungal infection was established by intratracheal administration of 100–300 μl of A. fumigatus inoculum in various concentrations (1 × 10^5 to 1 × 10^9 conidia per millilitre). Animals were injected intravenously 1–3 days (depending on the severity of infection) after A. fumigatus administration with ^68Ga-labelled siderophore (10–20 MBq and 1–2 μg of siderophore per rat). The rats were imaged or killed by overdosing with thiopental (Sandoz, Kundl, Austria) 2 h after injection. Various organs and tissues (blood, spleen, kidneys, liver and lungs) were removed and radioactivity was measured in a γ-counter. The excised organs were investigated for the presence of fungi, as described below.
Rats were treated as in the ‘standard’ infection model above, except that iron solution (FerMed; Medice, Iserlohn, Germany) 10 mg/kg was injected intraperitoneally three times (1 week, 4 days and 1 day) before A. fumigatus administration.
(§4) The excised organs were homogenized in a petri dish using a sterile surgical blade and transferred to Sabouraud dextrose agar (BD) plates. The plates were incubated at 37 °C and examined daily for 7 days. […] Severe infection was defined as the presence of severe fungal growth 1 day after incubation, mild infection was defined as the presence of minor growth up to 3 days after incubation, and no infection was defined as lack of growth within 1 week of incubation.

Stability in 6 mM DTPA = assay type: physicochemical
Experimental: as §1

A. fumigatus [3] = experiment: Ex vivo biodistribution in rat A. fumigatus infection model, standard; parameters: species or system Lewis rats
Experimental: as §2, §3, §4

[4] = Biodistribution in normal Balb/c mice; assay type: in vivo; conditions: normal noninfected Balb/c mice, i.v. tail vein
Experimental: Normal noninfected Balb/c mice (female, 6 weeks old) were injected with ^68Ga-siderophore (2 MBq and 0.1–0.2 μg of siderophore per mouse) into the tail vein. Animals were killed by cervical dislocation 30 min and 90 min after injection. The organs and tissues (blood, spleen, pancreas, stomach, intestines, kidneys, liver, heart, lungs, muscle and femur) were removed and radioactivity was counted in a γ-counter. The results are expressed as percentage of injected dose per gram of tissue.

[5] = system: A. fumigatus wild-type ATCC46645; experiment: In vitro uptake of ^68Ga-siderophores by A. fumigatus cultures; assay type: cell-based, Aspergillus fumigatus; conditions: room temperature
Experimental: The Aspergillus strain used for in vitro studies was A. fumigatus wild-type ATCC46645 (American Type Culture Collection) cultured at 37 °C in Aspergillus minimal medium, containing 1 % glucose as the carbon source, 20 mM glutamine as the nitrogen source, salts and trace elements, as described previously. Iron-sufficient media contained […] FeSO4. For preparation of iron-deficient media, iron addition was omitted. Iron-deficient conditions were verified by detection of extracellular siderophore production, which is suppressed by iron.
Uptake by A. fumigatus in iron-deficient and iron-sufficient cultures was studied. For the monitoring of uptake over time, ^68Ga-siderophores (5 ng) were incubated in microbial media for 10, 20, 30, 45, 60 and 90 min at room temperature in 96-well plates (Millipore, Billerica, MA). For the monitoring of uptake blocking, excess of ferri-siderophore (Fe-TAFC or Fe-FOXE) and/or sodium azide was used. ^68Ga-siderophores were incubated in iron-deficient and iron-sufficient media for 45 min at room temperature in 96-well plates. The incubation was interrupted in both cases by filtration of the medium and rapid rinsing with ice-cold TRIS buffer. The filters were collected and counted in a γ-counter.

Stability in 0.1 M FeCl3 = assay type: physicochemical
Experimental: as §1

Stability in human serum = assay type: in vitro ADME
Experimental: as §1

A. fumigatus [6] = experiment: PET imaging in rat A. fumigatus infection model; assay type: in vivo, Lewis rats; conditions: infected rats, lungs, calculated from all PET imaging studies, mean ± sd, n=13
Experimental: as §3
PET images were acquired with an Inveon animal PET/CT scanner (Siemens Preclinical Solutions, Knoxville, TN) with an intrinsic spatial resolution of 1.5 mm. The animals were placed in a prone position. Static PET images were acquired over 30 min starting 30 min after intravenous injection of ^68Ga-siderophore. Dynamic PET imaging was started upon injection and continued up to 60 min after injection. In addition, combined PET/CT scans were performed for anatomical reference. PET emission scans were acquired for 30 min, preceded by CT scans (spatial resolution 113 μm, 80 kV, 500 μA, exposure time 300 ms). After imaging, animals were killed by CO2/O2. Scans were reconstructed using Inveon Acquisition Workplace software (version 1.5; Siemens Preclinical Solutions, Knoxville, TN) using a 3-D ordered subset expectation maximization/maximum a posteriori (OSEM3D/MAP) algorithm with the following parameters: matrix 256 × 256 × 159, pixel size 0.43 × 0.43 × 0.8 mm^3 and a MAP prior β-value of 1.5.

[7] = Log P of ^68Ga-siderophores; assay type: physicochemical; conditions: determined as described previously [20]
Experimental: as §1

[8] = Metabolic stability in normal Balb/c mice (RP-HPLC of urine, blood, liver and kidney homogenates); assay type: in vivo; conditions: 30 min p.i., % intact on RP-HPLC
Experimental: Urine, blood, liver and kidneys of normal Balb/c mice injected with ^68Ga-siderophores and treated as described previously were collected 30 min after injection. The urine sample was directly injected onto the RP-HPLC column. Blood samples were precipitated with acetonitrile and centrifuged for 2 min, and the supernatant was injected onto the RP-HPLC column. Liver and kidneys were washed in the ice-cold TRIS buffer and liquidized using a mixer in a falcon tube containing 1 ml of TRIS buffer. The liver and kidney homogenates obtained were mixed with acetonitrile and centrifuged for 2 min, and the supernatant was injected onto the RP-HPLC column. In all cases 1 min fractions of the column eluate were collected and measured in a γ-counter. Samples were not collected at 90 min after injection because the measured activity was already low in the samples obtained 30 min after injection. All metabolic studies were performed using a previously described HPLC method.

[9] = iron preload model, 2 h after injection

## CC(=O)NC1CCCN([O-])C(=O)C=C(C)CCOC(=O)C(NC(C)=O)CCCN([O-])C(=O)C=C(C)CCOC(=O)C(NC(C)=O)CCCN([O-])C(=O)C=C(C)CCOC1=O.[68Ga+3] (stereo not shown) [^68Ga-TAFC, triacetylfusarinine C]
[1]; incubation time 30 min
  Protein binding (%): 0.47%
[1]; incubation time 60 min
  Protein binding (%): 0.76%
[1]; incubation time 120 min
  Protein binding (%): 1.21%
A. fumigatus [2]; iron preload model (10 mg/kg i.p. three times), severely infected rats, lungs 2 h after injection, n in cell
  Severe infection (%ID/g - lungs): 0.64 (n=1) %ID/g
A. fumigatus [2]; [9]
  Lung/blood ratio, control: 0.99 (n=1)
  Lung/blood ratio, mild infection: 5.35 (n=2)
  Lung/blood ratio, severe infection: 1.41 (n=1)
  Lung/kidneys ratio, control: 0.08 (n=1)
  Lung/kidneys ratio, mild infection: 0.31 (n=2)
  Lung/kidneys ratio, severe infection: 0.07 (n=1)
  Lung/liver ratio, control: 0.76 (n=1)
  Lung/liver ratio, mild infection: 4.53 (n=2)
  Lung/liver ratio, severe infection: 3.49 (n=1)
A. fumigatus [2]; iron preload model, mildly infected rats, lungs 2 h after injection, n in cell
  Mild infection (%ID/g - lungs): 0.27 (n=2) %ID/g
A. fumigatus [2]; iron preload model, rats showing no infection, lungs 2 h after injection, n in cell
  Control (%ID/g - lungs): 0.04 (n=1) %ID/g
Stability in 6 mM DTPA; incubation time 30 min
  Stability in 6-mM DTPA (%): 85.0%
Stability in 6 mM DTPA; incubation time 60 min
  Stability in 6-mM DTPA (%): 84.7%
A. fumigatus [3]; 2 h after injection
  Lung/blood ratio, control (mean ± sd): 1.34 ± 0.22 (n=9)
  Lung/blood ratio, mild infection (mean ± sd): 3.82 ± 2.89 (n=3)
  Lung/blood ratio, severe infection (mean ± sd): 15.11 ± 11.37 (n=4)
  Lung/kidneys ratio, control (mean ± sd): 0.07 ± 0.03 (n=9)
  Lung/kidneys ratio, mild infection (mean ± sd): 0.16 ± 0.14 (n=3)
  Lung/kidneys ratio, severe infection (mean ± sd): 1.40 ± 0.76 (n=4)
  Lung/liver ratio, control (mean ± sd): 0.84 ± 0.48 (n=9)
  Lung/liver ratio, mild infection (mean ± sd): 4.81 ± 2.70 (n=3)
  Lung/liver ratio, severe infection (mean ± sd): 14.29 ± 6.10 (n=4)
A. fumigatus [3]; mildly infected rats, lungs ex vivo 2 h after injection, n in cell
  Mild infection (%ID/g - lungs) (mean ± sd): 0.29 ± 0.12 %ID/g and 0.29 ± 0.12 (n=3) %ID/g
A. fumigatus [3]; rats showing no infection, lungs ex vivo 2 h after injection, n in cell
  Control (%ID/g - lungs) (mean ± sd): 0.04 ± 0.01 %ID/g and 0.04 ± 0.01 (n=9) %ID/g
A. fumigatus [3]; severely infected rats, lungs ex vivo 2 h after injection, γ-counter, n in cell
  Severe infection (%ID/g - lungs) (mean ± sd): 0.95 ± 0.37 %ID/g and 0.95 ± 0.37 (n=4) %ID/g
[4]; 30 min after injection
  Blood level: 1.6 ± 0.37 %ID/g
  Intestinal accumulation: 1.7 ± 1.04 %ID/g
[4]; 90 min after injection
  Intestinal accumulation: 1.0 ± 0.26 %ID/g
[5]; 5 ng ^68Ga-siderophore, 10-90 min, 96-well plates, filtration, γ-counter
  Uptake by A. fumigatus in iron-deficient cultures: rapid uptake
[5]; iron-deficient cultures, 45 min incubation
  Blocking of uptake with excess of ferri-siderophore and/or sodium azide: could be blocked
Stability in 0.1 M FeCl3; incubation time 30 min
  Stability in 0.1-M FeCl3 (%): 99.4%
Stability in 0.1 M FeCl3; incubation time 60 min
  Stability in 0.1-M FeCl3 (%): 98.5%
Stability in 0.1 M FeCl3; incubation time 120 min
  Stability in 0.1-M FeCl3 (%): 99.3%
Stability in human serum; incubation time 30 min
  Stability in human serum (%): 99.9%
Stability in human serum; incubation time 60 min
  Stability in human serum (%): 99.9%
Stability in human serum; incubation time 120 min
  Stability in human serum (%): 99.9%
A. fumigatus [6]
  Target/non-target ratio: 5.81 ± 6.05 (n=13)
[7]
  Log P: −2.59
[8]
  Stability in kidney homogenate (%): 96.7%
  Stability in liver homogenate (%): 98.1%
[8]; γ-counter
  Stability in urine (%): 97.6%
[8]; acetonitrile precipitation
  Stability in blood (%): 98.7%
